Data published in patent US10035820B2, “Compounds which inhibit neuronal exocytosis” (Lubrizol Advanced Materials, Inc., priority 2012, dated 2018).

System: human neuroblastoma cell line
Experiment: Release of noradrenaline induced by TPA/Ionomycin in a neuroblastoma cell line, quantified by ELISA
Assay type: cell-based
Settings: TPA/ION control = 100
Procedure: The induction of the release of noradrenaline with TPA (12-O-tetradecanoylphorbol-13-acetate)/Ionomycin enables direct measurement of neuronal exocytosis. For the study of the inhibitory effect of the compounds of the invention on the release of noradrenaline, cells of a human neuroblastoma cell line were pre-incubated (1×10^6 cells/well) for 60 minutes with the compound of the invention (1 μM, 10 μM, 100 μM, 500 μM or 1 mM compounds), and afterward the release of noradrenaline was induced. The release of the noradrenaline neurotransmitter was induced by an 8 minute pre-treatment with a solution of 12-O-tetradecanoylphorbol-13-acetate (TPA) 100 nM, which mobilized the intracellular vesicles which contained the neurotransmitter; followed by a 5 minute incubation with TPA/Ionomycin (100 nM/10 μM), which induced the release of the neurotransmitter contained in these vesicles. […] For this, absorbance at 405 nm was measured in Thermo Scientific Multiskan Ascent equipment.
The blocking of the SNARE complex by the compounds of the invention lead to an inhibition of neuronal exocytosis and therefore, a decrease in the levels of released noradrenaline (Table 6).

Substance	% RELEASED NORADRENALINE Average (1 μM compound) [%]	% RELEASED NORADRENALINE Average (10 μM compound) [%]	% RELEASED NORADRENALINE Average (100 μM compound) [%]	% RELEASED NORADRENALINE Average (500 μM compound) [%]	% RELEASED NORADRENALINE Average (1000 μM compound) [%]
Ac-EELKRWM-NH2 [Ac-SEQ ID NO: 116-NH2]	87.59	83.30	62.24	52.82	43.10
Ac-ENLKRWM-NH2 [Ac-SEQ ID NO: 117-NH2]	87.99	83.11	70.76	58.37	54.64
